Patent US11945822B2, “Pyrazolo-triazine and/or pyrazolo-pxrimidine derivatives as selective inhibitor of cyclin dependent kinase” (QURIENT CO., LTD., priority 2018, dated 2024)
pIC50: −log10 of the molar value. Read-outs that look alike come from different tables or passages of the source.

Key:
CDK7/Cyclin H/MNAT1 = target: T1, CDK7/Cyclin H/MNAT1 (Homo sapiens, UniProt P50613); assay: Enzymatic assay for CDK7 (FRET based LANCE Ultra kinase assay); type: biochemical
T1 construct: purchased Invitrogen PR6749B
Summary of the method: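 Inhibition was measured at Km ATP by time-resolved FRET between a Eu anti-phospho antibody and a phosphorylated ULight peptide. The enzyme was the purified CDK7/cyclin complex, and data were curve-fitted.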

CDK1/Cyclin B = target: T2, CDK1/Cyclin B (Homo sapiens, UniProt P06493); assay: Enzymatic assay for CDK1 (FRET based LANCE Ultra kinase assay); type: biochemical
T2 construct: purchased Invitrogen PR4768C
Summary of the method: (§1)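 Each CDK complex ([…]) phosphorylated 68 nM ULight-MBP peptide with ATP at Km for 60 min at 23° C., against 8 compound doses (4-fold dilutions). EDTA/Eu-anti-phospho-MBP detection, 60 min, then TR-FRET emission at 615 and 665 nm.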

MV4-11 = assay: Cellular MV4-11 viability assay (CellTiter-Glo, 72 hours); type: cell-based; conditions: Homo sapiens
Summary of the method: (§2)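 Growth inhibition is assessed over a 72-hour incubation at 37 °C in 5% CO2, relative to DMSO vehicle (final concentration less than 0.1%). Luminescence from CellTiter-Glo serves as the viability signal.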

A2780 = assay: Cellular A2780 viability assay (CellTiter-Glo, 72 hours); type: cell-based; conditions: Homo sapiens
From the text: Human T-cell acute lymphoblastic leukemia cell line, MOLT-4 (ATCC, Cat #CRL-1582), Human multiple myeloma cell line, RPMI-8226 (Invitrogen, Cat #22400-089) and MM.1S (ATCC, Cat #CRL-2974), NSCLC (Non-small cell lung cancer) cell line H460 (ATCC, Cat #HTB-177), Human colon colorectal carcinoma cell line HCT116 (ATCC, Cat #CCL-247), Human acute monocytic leukemia cell line MV4-11 (ATCC, Cat #CRL-9591), OVCAR-3 (ATCC, Cat #HTB-161) and A2780 (ECACC, Cat #93112519) were obtained from ATCC. Cells were grown in RPMI-1640 media (Invitrogen, Cat #22400-089) supplemented with 10% FBS (Invitrogen, Cat #10099141) and 1% penicillin/streptomycin (Invitrogen, Cat #15070063) and cultured at 37° C., 5% CO2 in a humidified chamber. All cell lines were routinely tested for mycoplasma.
The effect of the CDK7 inhibitor to inhibit the growth of target cancer cells was evaluated through the 72 hours time period of viability assay. Briefly, the candidate cell line ware plated in 96 well plate at the following density of cells respectively. 1×10^4 cells/well for MOLT-4, RPMI-8226, MV4-11 and MM.1S, 5×10^3 for H460, HCT116 and OVCAR-3 and IX 10^3 for A2780. After 24 hours, the cells were treated with various concentrations of the compound (ranging from 0.0015 uM to 10 uM). DMSO solvent without compound served as a control and final DMSO concentration less than 0.1%. After 72 hours of incubation at 37° C., 5% CO2 incubator, cells were analyzed for the viability using the CellTiter-Glo Luminescent Cell Viability Assay (Promega, Cat #G7570). All viability assays were performed in duplicate and Luminescence was read using an Envision (Perkin Elmer, USA). Data was analyzed using XLfit software.

CDK2/Cyclin A = target: T3, CDK2/Cyclin A (Homo sapiens, UniProt P24941); assay: Enzymatic assay for CDK2 (FRET based LANCE Ultra kinase assay); type: biochemical
T3 construct: purchased Invitrogen PV6290
Summary of the method: as §1

H460 = assay: Cellular H460 viability assay (CellTiter-Glo, 72 hours); type: cell-based; conditions: Homo sapiens, NCI-H460
Summary of the method: as §2

CDK5/p25 = target: T4, CDK5/p25 (Homo sapiens, UniProt Q00535); assay: Enzymatic assay for CDK5 (FRET based LANCE Ultra kinase assay); type: biochemical
T4 construct: purchased Invitrogen PR8543B
Summary of the method: as §1

[1] = read-out: CDK7 enzymatic activity (IC50 range)
[2] = read-out: CDK1 enzymatic activity (IC50 range)
[3] = read-out: CDK2 enzymatic activity (IC50 range)
[4] = read-out: CDK5 enzymatic activity (IC50 range)
[5] = read-out: CDK7 enzymatic activity (IC50 activity range)
[6] = read-out: CDK1 enzymatic activity (IC50 activity range)
[7] = read-out: CDK2 enzymatic activity (IC50 activity range)
[8] = read-out: CDK5 enzymatic activity (IC50 activity range)

T4 sequence (Q00535 whole entry): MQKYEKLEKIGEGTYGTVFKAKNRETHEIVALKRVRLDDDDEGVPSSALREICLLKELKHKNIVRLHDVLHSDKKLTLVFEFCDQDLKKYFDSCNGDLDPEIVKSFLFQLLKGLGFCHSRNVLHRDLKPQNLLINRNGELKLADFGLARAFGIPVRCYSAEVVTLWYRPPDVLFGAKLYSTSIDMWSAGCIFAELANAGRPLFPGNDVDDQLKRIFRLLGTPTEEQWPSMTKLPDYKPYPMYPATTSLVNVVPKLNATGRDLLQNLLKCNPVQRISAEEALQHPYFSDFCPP
T4 sequence (Q15078 99-307 partner limits assumed): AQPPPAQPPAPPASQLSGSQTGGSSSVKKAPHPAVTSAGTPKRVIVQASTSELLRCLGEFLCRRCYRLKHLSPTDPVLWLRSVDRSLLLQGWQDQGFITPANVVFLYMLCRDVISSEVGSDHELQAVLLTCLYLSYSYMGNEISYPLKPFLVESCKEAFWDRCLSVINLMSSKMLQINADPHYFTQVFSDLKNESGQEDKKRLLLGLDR
T1 sequence (P50613 whole entry): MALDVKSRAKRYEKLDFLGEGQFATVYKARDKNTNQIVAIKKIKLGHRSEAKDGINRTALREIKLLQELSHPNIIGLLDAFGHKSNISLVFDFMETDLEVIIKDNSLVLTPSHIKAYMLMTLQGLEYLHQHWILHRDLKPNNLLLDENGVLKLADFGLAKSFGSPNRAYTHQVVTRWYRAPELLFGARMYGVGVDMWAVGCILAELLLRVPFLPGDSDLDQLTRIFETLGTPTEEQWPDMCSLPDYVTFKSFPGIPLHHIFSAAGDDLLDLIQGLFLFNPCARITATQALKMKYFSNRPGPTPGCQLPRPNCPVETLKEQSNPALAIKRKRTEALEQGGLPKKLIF
T1 sequence (P51946 whole entry partner): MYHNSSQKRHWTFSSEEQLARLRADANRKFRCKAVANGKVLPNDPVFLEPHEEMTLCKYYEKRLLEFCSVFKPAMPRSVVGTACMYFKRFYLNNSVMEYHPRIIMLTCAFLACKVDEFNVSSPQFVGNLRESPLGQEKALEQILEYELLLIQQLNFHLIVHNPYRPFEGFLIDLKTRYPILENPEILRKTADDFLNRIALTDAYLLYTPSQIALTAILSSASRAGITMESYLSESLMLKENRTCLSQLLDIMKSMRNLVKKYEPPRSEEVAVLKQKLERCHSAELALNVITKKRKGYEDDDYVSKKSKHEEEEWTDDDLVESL
T1 sequence (P51948 whole entry partner): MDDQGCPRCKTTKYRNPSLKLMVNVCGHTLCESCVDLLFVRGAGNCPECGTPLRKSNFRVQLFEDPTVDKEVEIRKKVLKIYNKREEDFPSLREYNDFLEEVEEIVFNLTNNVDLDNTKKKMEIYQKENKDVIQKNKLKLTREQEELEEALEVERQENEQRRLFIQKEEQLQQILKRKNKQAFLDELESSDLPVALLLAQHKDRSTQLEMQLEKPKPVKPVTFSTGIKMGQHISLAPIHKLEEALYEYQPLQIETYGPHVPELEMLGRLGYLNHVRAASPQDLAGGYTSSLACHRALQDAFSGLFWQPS
T2 sequence (P06493 whole entry): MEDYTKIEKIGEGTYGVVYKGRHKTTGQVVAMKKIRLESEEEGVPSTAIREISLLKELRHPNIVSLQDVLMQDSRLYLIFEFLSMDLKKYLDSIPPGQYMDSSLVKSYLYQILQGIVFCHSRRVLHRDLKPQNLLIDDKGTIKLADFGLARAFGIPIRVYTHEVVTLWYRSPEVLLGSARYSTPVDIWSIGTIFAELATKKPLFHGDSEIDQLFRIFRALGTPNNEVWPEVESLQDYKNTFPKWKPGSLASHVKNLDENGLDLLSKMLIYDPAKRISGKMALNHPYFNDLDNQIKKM
T2 sequence (P14635 whole entry partner): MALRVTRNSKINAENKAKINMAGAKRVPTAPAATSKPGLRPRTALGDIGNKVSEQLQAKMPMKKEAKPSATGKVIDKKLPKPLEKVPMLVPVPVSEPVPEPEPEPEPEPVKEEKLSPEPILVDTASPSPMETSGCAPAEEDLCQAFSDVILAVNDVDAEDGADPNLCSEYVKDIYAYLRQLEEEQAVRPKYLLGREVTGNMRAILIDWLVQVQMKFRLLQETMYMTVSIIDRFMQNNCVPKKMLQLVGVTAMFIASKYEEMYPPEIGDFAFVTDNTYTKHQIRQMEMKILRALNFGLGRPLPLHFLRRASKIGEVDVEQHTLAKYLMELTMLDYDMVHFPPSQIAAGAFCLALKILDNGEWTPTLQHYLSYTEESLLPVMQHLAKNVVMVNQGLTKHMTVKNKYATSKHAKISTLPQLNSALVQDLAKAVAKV

Row | SMILES | CDK1/CDK7: Selectivity of CDK7 inhibition over CDK1 inhibition (CDK7/Cyclin H/MNAT1; CDK7 over CDK1) | CDK2/CDK7: Selectivity of CDK7 inhibition over CDK2 inhibition (CDK7/Cyclin H/MNAT1; CDK7 over CDK2) | CDK5/CDK7: Selectivity of CDK7 inhibition over CDK5 inhibition (CDK7/Cyclin H/MNAT1; CDK7 over CDK5) | pIC50 (CDK7/Cyclin H/MNAT1; [1]) | pIC50 (CDK1/Cyclin B; [2]) | pIC50 (MV4-11) | pIC50 (A2780) | pIC50 (CDK2/Cyclin A; [3]) | pIC50 (H460) | pIC50 (CDK5/p25; [4]) | CDK1/CDK7: Selectivity of CDK7 inhibition over CDK1 inhibition (CDK7/Cyclin H/MNAT1; CDK1/CDK7) | CDK2/CDK7: Selectivity of CDK7 inhibition over CDK2 inhibition (CDK7/Cyclin H/MNAT1; CDK2/CDK7) | CDK5/CDK7: Selectivity of CDK7 inhibition over CDK5 inhibition (CDK7/Cyclin H/MNAT1; CDK5/CDK7) | pIC50 (CDK7/Cyclin H/MNAT1; [5]) | pIC50 (CDK1/Cyclin B; [6]) | pIC50 (CDK2/Cyclin A; [7]) | pIC50 (CDK5/p25; [8])
1 | CC(C)c1cnn2c(NCc3c(Cl)cccc3-c3cc(C(C)(C)O)n(C)n3)nc(N3CCC(N)CC3)nc12 [Compound 244] | A (A=greater than 200 fold) | A (A=greater than 200 fold) | A (A=greater than 200 fold) | > 7.00 | < 6.00 | > 6.00 | ≥ 6.00 | < 6.00 | > 6.00 | < 6.00 |  |  |  |  |  |  | 
2 | CC(C)c1cnn2c(NCc3c(Cl)cccc3-c3ccc4ccccc4n3)nc(N3CCCC[C@H]3CO)nc12 [Compound 264] |  |  |  |  |  | < 5.00 | < 5.00 |  | < 5.00 |  | B (B=less than 200 fold, but greater than 20 fold) | B (B=less than 200 fold, but greater than 20 fold) | B (B=less than 200 fold, but greater than 20 fold) | 6.00 to 7.00 | < 6.00 | < 6.00 | < 6.00
3 | CC(C)c1cnn2c(NCc3ccccc3-c3ccc4cc(C(C)(C)O)ccc4n3)nc(N3CCC(O)(CN)CC3)nc12 [Compound 243] | A (A=greater than 200 fold) | A (A=greater than 200 fold) | A (A=greater than 200 fold) | > 7.00 | < 6.00 | > 6.00 | ≥ 6.00 | < 6.00 | > 6.00 | < 6.00 |  |  |  |  |  |  | 
4 | CC(C)c1cnn2c(NCc3c(Cl)cccc3C#N)nc(N3CCC(N)CC3)nc12 [Compound 242] | A (A=greater than 200 fold) | B (B=less than 200 fold, but greater than 20 fold) | B (B=less than 200 fold, but greater than 20 fold) | > 7.00 | < 6.00 | > 6.00 | ≥ 6.00 | 6.00 to 7.00 | > 6.00 | 6.00 to 7.00 |  |  |  |  |  |  | 
5 | CC(C)c1cnn2c(NCc3c(Cl)cccc3-c3ccc4ccccc4n3)nc(N3CCCC[C@H]3CCO)nc12 [Compound 262] |  |  |  |  |  | < 5.00 | < 5.00 |  | < 5.00 |  | B (B=less than 200 fold, but greater than 20 fold) | B (B=less than 200 fold, but greater than 20 fold) | B (B=less than 200 fold, but greater than 20 fold) | 6.00 to 7.00 | < 6.00 | < 6.00 | < 6.00
6 | CC(C)c1cnn2c(NCc3ccccc3-c3ccc4ccccc4n3)nc(N3CCOCC3)nc12 [Compound 268] |  |  |  |  |  | < 5.00 | 5.00 to 6.00 |  | > 6.00 |  | A (A=greater than 200 fold) | A (A=greater than 200 fold) | A (A=greater than 200 fold) | > 7.00 | < 6.00 | < 6.00 | < 6.00
7 | CC(C)c1cnn2c(NCc3c(Cl)cccc3-n3ccc(C(C)(C)O)n3)nc(N3CCC(F)(CN)CC3)nc12 [Compound 252] |  |  |  |  |  | > 6.00 | ≥ 6.00 |  | > 6.00 |  | A (A=greater than 200 fold) | A (A=greater than 200 fold) | A (A=greater than 200 fold) | > 7.00 | < 6.00 | < 6.00 | < 6.00
